Experimental findings from publication PMC5997768 (2018) are described below.

For the assay, the system named is rats with CCI. The conditions noted are these: rat, in vivo, iv.

Molecules are shown by their SMILES.

Consider `C=CC[N+]1(C)CC[C@]23c4c5ccc(O)c4O[C@H]2C(=O)CC[C@@]3(O)[C@H]1C5` (some centres unmarked) [NLXM, naloxone methiodide], for which the “Effect on FF3-induced analgesia (PPT) in ipsilateral limbs” value is given as “abolished” and the “Effect on PPT in contralateral paws” value is recorded as “No changes were observed”.
